Source: ChEMBL document CHEMBL1136436, “A new model of the tautomycin-PP1 complex that is not analogous to the corresponding okadaic acid structure” (Bioorg Med Chem Lett, 2003)
pIC50: −log10 of the molar value.

How the values were obtained:
[1] = Inhibition of protein phosphatase 1 (PP1) was determined by standard phosphorylase inhibition assay; parameters: species or system Oryctolagus cuniculus
[2] = Inhibition of protein phosphatase 2A (PP2A) was determined by standard phosphorylase inhibition assay; parameters: species or system Oryctolagus cuniculus

SMILES: CO[C@@H](CO)[C@H](OC(=O)C[C@@H](O)C1=C(C)C(=O)OC1=O)C(C)C
- pIC50 [1]: 5.32
- pIC50 [2]: 5.48

SMILES: CC[C@@H](C)CC[C@H](O)[C@H](C)C(=O)C[C@@H](O)[C@H](OC)[C@H](OC(=O)C[C@@H](O)C1=C(C)C(=O)OC1=O)C(C)C
- pIC50 [1]: 3.89
- pIC50 [2]: 4.00

SMILES: CO[C@H]([C@H](O)CC(=O)[C@@H](C)[C@@H](O)CC[C@@H](C)[C@@H]1O[C@]2(CC[C@@H](C)[C@H](CC[C@H](C)C(C)=O)O2)CC[C@@H]1C)[C@H](OC(=O)C[C@@H](O)C1=C(C)C(=O)OC1=O)C(C)C [TAUTOMYCIN]
- pIC50 [1]: 6.72
- pIC50 [2]: 6.05
